Assays:
BTK wildtype protein = BTK wildtype protein (Homo sapiens (Human), UniProt Q06187); assay: BTK wildtype HTRF displacement assay; type: binding; settings: 1-hour incubation; read-out: BTK (wt) IC50
Summary of the method: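 Tracer-displacement HTRF format: compound and tracer 239 compete at the BTK active site, detected via anti-GST-Tb on GST-tagged full-length enzyme. One-hour room-temperature incubation; compounds dosed at six four-fold steps down from 5 μM. Percent inhibition versus DMSO gives IC50 by constrained four-parameter logistic fit.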

BTK C481S protein = BTK C481S protein (Homo sapiens (Human), UniProt Q06187, C481S); assay: BTK C481S HTRF displacement assay; type: binding; settings: 1-hour incubation
Summary of the method: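 Tracer displacement read by HTRF after 1 hour at room temperature: GST-BTK C481S 2-659, 50 nM tracer 239 (Kd 54 nM), anti-GST antibody, compound in six four-fold doses from 5 μM. Percent inhibition versus DMSO fitted (bottom 0, top 100) for IC50, converted to KI via Cheng-Prusoff.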

Chain of BTK C481S protein (Q06187 2-659 C481S): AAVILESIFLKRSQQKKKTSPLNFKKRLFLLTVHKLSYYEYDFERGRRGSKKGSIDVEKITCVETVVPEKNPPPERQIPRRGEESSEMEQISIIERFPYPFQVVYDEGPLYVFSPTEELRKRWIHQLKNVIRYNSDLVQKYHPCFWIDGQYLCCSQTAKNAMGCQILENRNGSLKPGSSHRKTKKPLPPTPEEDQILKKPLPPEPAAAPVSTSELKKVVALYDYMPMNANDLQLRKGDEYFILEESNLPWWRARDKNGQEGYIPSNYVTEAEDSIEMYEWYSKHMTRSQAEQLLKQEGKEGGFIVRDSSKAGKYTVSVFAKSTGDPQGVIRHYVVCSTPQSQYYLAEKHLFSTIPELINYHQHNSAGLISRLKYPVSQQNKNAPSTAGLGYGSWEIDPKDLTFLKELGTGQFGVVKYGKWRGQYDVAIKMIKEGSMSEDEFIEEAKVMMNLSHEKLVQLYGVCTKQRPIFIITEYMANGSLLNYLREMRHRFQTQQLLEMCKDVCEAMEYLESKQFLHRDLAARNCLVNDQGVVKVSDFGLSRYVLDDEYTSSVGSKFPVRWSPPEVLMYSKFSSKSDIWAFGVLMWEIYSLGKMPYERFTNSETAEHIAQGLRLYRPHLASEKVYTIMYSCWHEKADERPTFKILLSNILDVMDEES
Chain of BTK wildtype protein (Q06187 2-659): as the sequence (Q06187 2-659 C481S) above, with S480C counted along it

SMILES | IC50 (BTK wildtype protein) [nM] | IC50 (BTK C481S protein) [nM]
COc1ccc(F)cc1C(=O)NCc1ccc(-c2nn(C3(CN(C)C(=O)n4cnnn4)CC3)c3ncnc(N)c23)cc1 [Compound 119, N-((1-(4-amino-3-(4-((5-fluoro-2-methoxybenzamido)methyl)phenyl)-1H-pyrazolo[3,4-d]pyrimidin-1-yl)cyclopropyl)methyl)-N-methyl-1H-tetrazole-1-carboxamide] | ≤ 1000 | > 1000
COc1ccc(F)cc1C(=O)NCc1ccc(-c2nn(C(Cc3ccccn3)CN(C)C(=O)n3cncn3)c3ncnc(N)c23)cc1 (centres unmarked) [Compound 268, N-(2-(4-amino-3-(4-((5-fluoro-2-methoxybenzamido)methyl)phenyl)-1H-pyrazolo[3,4-d]pyrimidin-1-yl)-3-(pyridin-2-yl)propyl)-N-methyl-1H-1,2,4-triazole-1-carboxamide] | > 1000 | > 1000
COc1ccc(F)cc1C(=O)NCc1ccc(-c2nn(-c3ccccc3CN(C)C(=O)n3cncn3)c3ncnc(N)c23)cc1 [Compound 143, N-(2-(4-amino-3-(4-((5-fluoro-2-methoxybenzamido)methyl)phenyl)-1H-pyrazolo[3,4-d]pyrimidin-1-yl)benzyl)-N-methyl-1H-1,2,4-triazole-1-carboxamide] | > 1000 | > 1000
COc1ccc(F)cc1C(=O)NCc1ccc(-c2nn([C@H]3CCCC[C@@H](N(C)C(=O)n4cncn4)C3)c(N)c2C(N)=O)cc1 [Compound 222, N-((1R,3S)-3-(5-amino-4-carbamoyl-3-(4-((5-fluoro-2-methoxybenzamido)methyl)phenyl)-1H-pyrazol-1-yl)cycloheptyl)-N-methyl-1H-1,2,4-triazole-1-carboxamide] | ≤ 1000 | ≤ 1000
CN(C(=O)n1cncn1)C1CCC(C2CCNc3c(C(N)=O)c(-c4ccc(Oc5ccccc5)cc4)nn32)CC1 (centres unmarked) [Compound 196, 7-(4-(N-methyl-1H-1,2,4-triazole-1-carboxamido)cyclohexyl)-2-(4-phenoxyphenyl)-4,5,6,7-tetrahydropyrazolo[1,5-a] pyrimidine-3-carboxamide] | ≤ 1000 | ≤ 1000
COc1ccc(F)cc1C(=O)NCc1ccc(-c2nn(C(C)C3CCN(C(=O)n4cncn4)C3)c3ncnc(N)c23)cc1 (centres unmarked) [Compound 172, N-(4-(1-(1-(1-(1H-1,2,4-triazole-1-carbonyl)pyrrolidin-3-yl)ethyl)-4-amino-1H-pyrazolo[3,4-d]pyrimidin-3-yl)benzyl)-5-fluoro-2-methoxybenzamide] | ≤ 1000 | ≤ 1000
COc1ccc(F)cc1C(=O)NCc1ccc(-c2nn(C[C@@H]3CCCCN3C(=O)n3cncn3)c3[nH]c(=O)[nH]c(=O)c23)cc1 [Compound 164] | ≤ 1000 | ≤ 1000
NC(=O)c1c(-c2ccc(Oc3ccccc3)cc2)nn2c1NCCC2CN(C(=O)n1cncn1)C1CC1 (centres unmarked) [Compound 240, 7-((N-cyclopropyl-1H-1,2,4-triazole-1-carboxamido)methyl)-2-(4-phenoxyphenyl)-4,5,6,7-tetrahydro-pyrazolo[1,5-a]pyrimidine-3-carboxamide] | > 1000 | > 1000
CC1CC(n2nc(-c3ccc(Oc4ccccc4)cc3)c3c(N)ncnc32)CC(C)N1C(=O)n1cncn1 (centres unmarked) [Compound 101, (4-(4-amino-3-(4-phenoxyphenyl)-1H-pyrazolo[3,4-d]pyrimidin-1-yl)-2,6-dimethylpiperidin-1-yl)(1H-1,2,4-triazol-1-yl)methanone] | ≤ 1000 | ≤ 1000
NC(=O)c1c(-c2ccc(Oc3ccccc3)cc2)nn(C2CCCC3C2CCN3C(=O)n2cncn2)c1N (centres unmarked) [Compound 197, 1-(1-(1H-1,2,4-triazole-1-carbonyl)octahydro-1H-indol-4-yl)-5-amino-3-(4-phenoxy-phenyl)-1H-pyrazole-4-carboxamide] | ≤ 1000 | ≤ 1000
CN(CCC1CCNc2c(C(N)=O)c(-c3ccc(Oc4ccccc4)cc3)nn21)C(=O)n1cncn1 (centres unmarked) [Compound 244, 7-(2-(N-methyl-1H-1,2,4-triazole-1-carboxamido)ethyl)-2-(4-phenoxyphenyl)-4,5,6,7-tetrahydropyrazolo[1,5-a] pyrimidine-3-carboxamide] | ≤ 1000 | ≤ 1000
CNc1c(C(N)=O)c(-c2ccc(Oc3ccccc3)cc2)nn1C[C@@H]1CCCCN1C(=O)n1cncn1 [Compound 238, (S)-1-((1-(1H-1,2,4-triazole-1-carbonyl)piperidin-2-yl)methyl)-5-(methylamino)-3-(4-phenoxyphenyl)-1H-pyrazole-4-carboxamide] | ≤ 1000 | > 1000
COc1ccc(F)cc1C(=O)NCc1ccc(-c2nn(C3CCCN(C(=O)n4cncn4)C3)c(N)c2C(N)=O)cc1 (centres unmarked) [Compound 124, 1-(1-(1H-1,2,4-triazole-1-carbonyl)piperidin-3-yl)-5-amino-3-(4-((5-fluoro-2-methoxybenzamido)methyl)phenyl)-1H-pyrazole-4-carboxamide] | ≤ 1000 | ≤ 1000
COc1ccc(F)cc1C(=O)NCc1ccc(-c2nn(C(C)CN(C)C(=O)n3cncn3)c(N)c2C(N)=O)cc1 (centres unmarked) [Compound 218, N-(2-(5-amino-4-carbamoyl-3-(4-((5-fluoro-2-methoxybenzamido)methyl)phenyl)-1H-pyrazol-1-yl)propyl)-N-methyl-1H-1,2,4-triazole-1-carboxamide] | ≤ 1000 | ≤ 1000
CN(C(=O)n1cncn1)C1CCC2C(CNc3c(C(N)=O)c(-c4ccc(Oc5ccccc5)cc4)nn32)C1 (centres unmarked) [Compound 272, 7-(N-methyl-1H-1,2,4-triazole-1-carboxamido)-2-(4-phenoxyphenyl)-4,5,5a,6,7,8,9,9a-octahydropyrazolo [1,5-a]quinazoline-3-carboxamide] | ≤ 1000 | ≤ 1000
CN(CC1CCNc2c(C(N)=O)c(-c3ccc(Oc4ccccc4)cc3)nn21)C(=O)n1cncn1 (centres unmarked) [Compound 113, 7-((N-methyl-1H-1,2,4-triazole-1-carboxamido)methyl)-2-(4-phenoxyphenyl)-4,5,6,7-tetrahydro-pyrazolo[1,5-a]pyrimidine-3-carboxamide] | > 1000 | > 1000
CN(C(=O)n1cncn1)C1CCCCC1n1nc(-c2ccc(Oc3ccccc3)cc2)c2c(N)ncnc21 (centres unmarked) [Compound 263, N-(2-(4-amino-3-(4-phenoxyphenyl)-1H-pyrazolo[3,4-d]pyrimidin-1-yl)cyclohexyl)-N-methyl-1H-1,2,4-triazole-1-carboxamide] | ≤ 1000 | ≤ 1000
COc1ccc(F)cc1C(=O)NCc1ccc(-c2nn(C[C@H]3CCN3C(=O)n3cncn3)c3ncnc(N)c23)cc1 [Compound 108, (R)-N-(4-(1-((1-(1H-1,2,4-triazole-1-carbonyl)azetidin-2-yl)methyl)-4-amino-1H-pyrazolo[3,4-d]pyrimidin-3-yl)benzyl)-5-fluoro-2-methoxybenzamide] | ≤ 1000 | ≤ 1000
COc1ccc(F)cc1C(=O)NCc1ccc(-c2nn(CC3CN(C)CCN3C(=O)n3cncn3)c3ncnc(N)c23)cc1 (centres unmarked) [Compound 178, N-(4-(4-amino-1-((4-methyl-1-(1H-1,2,4-triazole-1-carbonyl)piperazin-2-yl)methyl)-1H-pyrazolo[3,4-d]pyrimidin-3-yl)benzyl)-5-fluoro-2-methoxybenzamide] | > 1000 | > 1000
COc1ccc(F)cc1C(=O)NCc1ccc(-c2nn(C[C@@H]3CCCN3C(=O)n3cncn3)c3ncnc(N)c23)cc1 [Compound 251, (S)-N-(4-(1-((1-(1H-1,2,4-triazole-1-carbonyl)pyrrolidin-2-yl)methyl)-4-amino-1H-pyrazolo[3,4-d]pyrimidin-3-yl)benzyl)-5-fluoro-2-methoxybenzamide] | ≤ 1000 | ≤ 1000
COc1ccc(F)cc1C(=O)NCc1ccc(-c2nn(CC3COCCN3C(=O)n3cncn3)c3ncnc(N)c23)cc1 (centres unmarked) [Compound 210, N-(4-(1-((4-(1H-1,2,4-triazole-1-carbonyl)morpholin-3-yl)methyl)-4-amino-1H-pyrazolo[3,4-d]pyrimidin-3-yl)benzyl)-5-fluoro-2-methoxybenzamide] | > 1000 | > 1000
CN(C(=O)n1cncn1)C1CCC2C(CNc3c(C(N)=O)c(-c4ccc(Oc5ccccc5)cc4)nn32)C1 (centres unmarked) [Compound 199, 7-(N-methyl-1H-1,2,4-triazole-1-carboxamido)-2-(4-phenoxyphenyl)-4,5,5a,6,7,8,9,9a-octahydro-pyrazolo[1,5-a]quinazoline-3-carboxamide] | ≤ 1000 | ≤ 1000
COc1ccc(F)cc1C(=O)NCc1ccc(-c2nn(C(C)CCN(C)C(=O)n3cncn3)c3ncnc(N)c23)cc1 (centres unmarked) [Compound 303, N-(3-(4-amino-3-(4-((5-fluoro-2-methoxybenzamido)methyl)phenyl)-1H-pyrazolo[3,4-d]pyrimidin-1-yl)butyl)-N-methyl-1H-1,2,4-triazole-1-carboxamide] | ≤ 1000 | ≤ 1000
COc1nn(C)cc1Nc1nc(N2CCCC3(CCN3C(=O)n3cncn3)C2)nc2c1ncn2C (centres unmarked) [Compound 102, (6-(6-((3-methoxy-1-methyl-1H-pyrazol-4-yl)amino)-9-methyl-9H-purin-2-yl)-1,6-diazaspiro[3.5]nonan-1-yl) (1H-1,2,4-triazol-1-yl)methanone] | > 1000 | > 1000
COc1ccc(F)cc1C(=O)NCc1ccc(-c2nn(CC3CCC(O)CN3C(=O)n3cncn3)c3ncnc(N)c23)cc1 (centres unmarked) [Compound 246, N-(4-(4-amino-1-((5-hydroxy-1-(1H-1,2,4-triazole-1-carbonyl)piperidin-2-yl)methyl)-1H-pyrazolo[3,4-d]pyrimidin-3-yl)benzyl)-5-fluoro-2-methoxybenzamide] | ≤ 1000 | ≤ 1000

Reference: patent US20240294531A1, “COVALENT HETEROCYCLES AND USES THEREOF” (Kumquat Biosciences Inc., priority 2022, published 2024)
